Experiments:
[1] = target: Mitogen-activated protein kinase 1 (Homo sapiens) (UniProt P28482); assay: Inhibition of human recombinant Erk2 at 40 nM related to control ULK1
[2] = target: T1, Serine/threonine-protein kinase Nek2 (Homo sapiens) (UniProt P51955); assay: Inhibition of human recombinant NEK2 at 40 nM related to control ULK1
T1 sequence (whole entry): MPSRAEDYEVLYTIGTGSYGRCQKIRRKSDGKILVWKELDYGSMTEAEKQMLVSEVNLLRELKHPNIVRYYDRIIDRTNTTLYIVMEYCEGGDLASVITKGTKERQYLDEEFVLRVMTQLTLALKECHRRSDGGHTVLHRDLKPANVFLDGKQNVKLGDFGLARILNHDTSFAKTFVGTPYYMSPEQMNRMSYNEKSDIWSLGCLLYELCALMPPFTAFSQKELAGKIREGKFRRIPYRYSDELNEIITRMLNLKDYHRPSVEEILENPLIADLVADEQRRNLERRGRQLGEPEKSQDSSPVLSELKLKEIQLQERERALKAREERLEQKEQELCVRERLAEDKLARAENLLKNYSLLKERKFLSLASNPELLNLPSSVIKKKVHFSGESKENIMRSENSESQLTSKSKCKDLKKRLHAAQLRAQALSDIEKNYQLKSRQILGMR

[3] = target: Serine/threonine-protein kinase 33 (Homo sapiens) (UniProt Q9BYT3); assay: Inhibition of human recombinant STK33 at 40 nM related to control ULK1
[4] = target: Tyrosine-protein kinase Fes/Fps (Homo sapiens) (UniProt P07332); assay: Inhibition of human recombinant FES at 15 nM in presence of ATP by radiometric assay relative to control
[5] = target: T2, Serine/threonine-protein kinase NLK (Homo sapiens) (UniProt Q9UBE8); assay: Inhibition of human recombinant NLK at 15 nM in presence of ATP by radiometric assay relative to control
T2 sequence (whole entry): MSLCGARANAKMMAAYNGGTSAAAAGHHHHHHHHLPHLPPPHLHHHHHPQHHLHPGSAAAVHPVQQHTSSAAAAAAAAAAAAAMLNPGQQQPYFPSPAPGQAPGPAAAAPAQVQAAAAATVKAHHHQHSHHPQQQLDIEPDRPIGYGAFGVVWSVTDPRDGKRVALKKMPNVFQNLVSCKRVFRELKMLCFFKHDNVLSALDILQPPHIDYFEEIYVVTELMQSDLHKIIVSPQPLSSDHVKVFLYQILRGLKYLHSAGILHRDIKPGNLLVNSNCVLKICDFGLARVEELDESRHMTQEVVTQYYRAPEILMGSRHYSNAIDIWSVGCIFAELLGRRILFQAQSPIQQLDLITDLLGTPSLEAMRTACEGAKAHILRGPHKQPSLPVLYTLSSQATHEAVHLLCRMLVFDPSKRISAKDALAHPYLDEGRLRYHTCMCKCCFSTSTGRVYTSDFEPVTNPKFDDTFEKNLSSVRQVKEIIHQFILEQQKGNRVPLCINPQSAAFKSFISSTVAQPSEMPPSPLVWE

[6] = target: Proto-oncogene tyrosine-protein kinase ROS (Homo sapiens) (UniProt P08922); assay: Inhibition of human recombinant ROS at 15 nM in presence of ATP by radiometric assay relative to control
Chain of Proto-oncogene tyrosine-protein kinase ROS (Homo sapiens) (P08922 whole entry): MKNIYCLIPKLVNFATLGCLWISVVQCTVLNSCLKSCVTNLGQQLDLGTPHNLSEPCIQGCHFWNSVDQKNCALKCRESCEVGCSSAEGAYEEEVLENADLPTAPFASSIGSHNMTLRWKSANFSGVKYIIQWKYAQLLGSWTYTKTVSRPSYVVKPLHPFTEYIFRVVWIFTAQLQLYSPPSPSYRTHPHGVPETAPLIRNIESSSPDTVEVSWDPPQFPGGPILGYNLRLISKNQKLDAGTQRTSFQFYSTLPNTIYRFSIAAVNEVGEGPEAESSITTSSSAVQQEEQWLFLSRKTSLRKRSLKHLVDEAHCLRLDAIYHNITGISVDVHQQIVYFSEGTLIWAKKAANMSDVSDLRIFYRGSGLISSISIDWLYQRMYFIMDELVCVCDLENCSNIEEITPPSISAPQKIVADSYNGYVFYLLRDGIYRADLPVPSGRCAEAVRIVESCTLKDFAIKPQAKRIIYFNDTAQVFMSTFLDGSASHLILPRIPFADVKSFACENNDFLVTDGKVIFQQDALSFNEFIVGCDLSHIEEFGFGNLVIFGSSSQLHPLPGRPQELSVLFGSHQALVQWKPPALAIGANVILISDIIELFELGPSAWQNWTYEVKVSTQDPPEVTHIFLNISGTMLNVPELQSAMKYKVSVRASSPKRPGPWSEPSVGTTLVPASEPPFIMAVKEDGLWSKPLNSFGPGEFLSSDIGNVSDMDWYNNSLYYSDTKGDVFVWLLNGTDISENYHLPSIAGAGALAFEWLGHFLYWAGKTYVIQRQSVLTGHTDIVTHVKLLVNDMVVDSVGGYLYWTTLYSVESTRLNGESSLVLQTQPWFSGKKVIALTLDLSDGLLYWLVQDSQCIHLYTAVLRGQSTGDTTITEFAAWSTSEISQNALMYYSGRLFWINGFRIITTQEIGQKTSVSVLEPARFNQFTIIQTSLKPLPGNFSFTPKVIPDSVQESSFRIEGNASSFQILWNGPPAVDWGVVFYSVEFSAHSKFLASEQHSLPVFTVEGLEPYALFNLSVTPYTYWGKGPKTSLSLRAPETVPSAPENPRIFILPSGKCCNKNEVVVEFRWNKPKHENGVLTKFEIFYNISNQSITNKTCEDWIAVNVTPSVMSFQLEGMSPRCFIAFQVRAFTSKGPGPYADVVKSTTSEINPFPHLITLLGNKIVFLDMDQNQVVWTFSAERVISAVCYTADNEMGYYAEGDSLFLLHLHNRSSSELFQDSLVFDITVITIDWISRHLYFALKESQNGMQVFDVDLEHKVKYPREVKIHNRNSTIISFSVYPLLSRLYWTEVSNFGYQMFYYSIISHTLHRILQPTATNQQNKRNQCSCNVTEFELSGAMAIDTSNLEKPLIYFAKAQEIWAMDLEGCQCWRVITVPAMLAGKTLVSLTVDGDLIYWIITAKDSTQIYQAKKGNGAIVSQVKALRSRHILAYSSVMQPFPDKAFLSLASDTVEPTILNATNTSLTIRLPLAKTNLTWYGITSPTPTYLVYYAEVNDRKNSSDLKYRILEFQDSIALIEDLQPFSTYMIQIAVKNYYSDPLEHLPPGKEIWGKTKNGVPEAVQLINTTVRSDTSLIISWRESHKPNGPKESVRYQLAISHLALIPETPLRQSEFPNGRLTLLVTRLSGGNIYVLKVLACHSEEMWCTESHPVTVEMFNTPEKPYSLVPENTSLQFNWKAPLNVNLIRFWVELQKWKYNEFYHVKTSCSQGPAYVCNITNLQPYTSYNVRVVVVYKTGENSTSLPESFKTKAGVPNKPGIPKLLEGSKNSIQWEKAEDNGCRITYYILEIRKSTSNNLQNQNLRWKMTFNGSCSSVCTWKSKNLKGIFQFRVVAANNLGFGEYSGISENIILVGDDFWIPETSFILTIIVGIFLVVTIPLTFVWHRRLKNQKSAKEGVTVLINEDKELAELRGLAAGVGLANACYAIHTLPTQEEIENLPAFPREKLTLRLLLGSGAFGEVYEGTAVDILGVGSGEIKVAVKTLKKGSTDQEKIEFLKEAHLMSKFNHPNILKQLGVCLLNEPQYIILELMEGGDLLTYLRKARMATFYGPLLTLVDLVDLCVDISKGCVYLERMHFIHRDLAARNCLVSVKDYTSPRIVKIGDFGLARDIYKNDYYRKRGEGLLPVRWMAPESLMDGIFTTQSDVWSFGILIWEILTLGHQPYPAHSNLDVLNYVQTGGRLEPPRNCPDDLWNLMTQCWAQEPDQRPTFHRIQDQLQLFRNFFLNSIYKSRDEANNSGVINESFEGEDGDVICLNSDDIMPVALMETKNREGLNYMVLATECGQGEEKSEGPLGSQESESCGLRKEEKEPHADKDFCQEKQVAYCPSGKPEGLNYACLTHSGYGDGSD

[7] = target: T3, Aurora kinase C (Homo sapiens) (UniProt Q9UQB9); assay: Inhibition of human recombinant AurC at 15 nM related to control ULK1
T3 sequence (whole entry): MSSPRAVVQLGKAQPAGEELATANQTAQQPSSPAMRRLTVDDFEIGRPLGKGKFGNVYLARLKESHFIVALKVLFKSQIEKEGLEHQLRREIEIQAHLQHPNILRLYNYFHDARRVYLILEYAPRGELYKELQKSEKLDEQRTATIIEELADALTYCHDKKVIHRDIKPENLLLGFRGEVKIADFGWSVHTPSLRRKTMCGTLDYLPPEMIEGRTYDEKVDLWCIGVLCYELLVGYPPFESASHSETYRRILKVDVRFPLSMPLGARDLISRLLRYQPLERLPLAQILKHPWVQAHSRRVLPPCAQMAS

[8] = target: MAP kinase-activated protein kinase 2 (Homo sapiens) (UniProt P49137); assay: Inhibition of human recombinant MAPKAPK2 at 15 nM related to control ULK1
[9] = target: T4, Serine/threonine-protein kinase Nek3 (Homo sapiens) (UniProt P51956); assay: Inhibition of human recombinant NEK3 at 15 nM related to control ULK1
T4 sequence (whole entry): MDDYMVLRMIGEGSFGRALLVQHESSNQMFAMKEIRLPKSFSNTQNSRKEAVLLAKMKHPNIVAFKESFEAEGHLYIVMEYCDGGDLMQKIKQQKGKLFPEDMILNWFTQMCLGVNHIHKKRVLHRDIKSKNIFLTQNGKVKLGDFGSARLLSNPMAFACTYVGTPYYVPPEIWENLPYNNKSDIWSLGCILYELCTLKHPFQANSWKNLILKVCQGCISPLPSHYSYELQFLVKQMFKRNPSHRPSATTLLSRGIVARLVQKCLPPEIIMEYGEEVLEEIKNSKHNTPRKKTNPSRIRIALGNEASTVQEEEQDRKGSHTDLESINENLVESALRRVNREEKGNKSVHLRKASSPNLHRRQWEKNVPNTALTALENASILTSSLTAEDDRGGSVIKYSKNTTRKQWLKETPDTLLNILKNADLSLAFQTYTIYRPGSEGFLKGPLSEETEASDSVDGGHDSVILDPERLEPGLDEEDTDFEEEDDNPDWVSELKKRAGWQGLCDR

[10] = target: Protein-tyrosine kinase 2-beta (Homo sapiens) (UniProt Q14289); assay: Inhibition of human recombinant PYK2 at 15 nM related to control ULK1
[11] = target: Serine/threonine-protein kinase D2 (Homo sapiens) (UniProt Q9BZL6); assay: Inhibition of human recombinant PKD2 at 15 nM in presence of ATP by radiometric assay relative to control
Chain of Serine/threonine-protein kinase D2 (Homo sapiens) (Q9BZL6 whole entry, looked up): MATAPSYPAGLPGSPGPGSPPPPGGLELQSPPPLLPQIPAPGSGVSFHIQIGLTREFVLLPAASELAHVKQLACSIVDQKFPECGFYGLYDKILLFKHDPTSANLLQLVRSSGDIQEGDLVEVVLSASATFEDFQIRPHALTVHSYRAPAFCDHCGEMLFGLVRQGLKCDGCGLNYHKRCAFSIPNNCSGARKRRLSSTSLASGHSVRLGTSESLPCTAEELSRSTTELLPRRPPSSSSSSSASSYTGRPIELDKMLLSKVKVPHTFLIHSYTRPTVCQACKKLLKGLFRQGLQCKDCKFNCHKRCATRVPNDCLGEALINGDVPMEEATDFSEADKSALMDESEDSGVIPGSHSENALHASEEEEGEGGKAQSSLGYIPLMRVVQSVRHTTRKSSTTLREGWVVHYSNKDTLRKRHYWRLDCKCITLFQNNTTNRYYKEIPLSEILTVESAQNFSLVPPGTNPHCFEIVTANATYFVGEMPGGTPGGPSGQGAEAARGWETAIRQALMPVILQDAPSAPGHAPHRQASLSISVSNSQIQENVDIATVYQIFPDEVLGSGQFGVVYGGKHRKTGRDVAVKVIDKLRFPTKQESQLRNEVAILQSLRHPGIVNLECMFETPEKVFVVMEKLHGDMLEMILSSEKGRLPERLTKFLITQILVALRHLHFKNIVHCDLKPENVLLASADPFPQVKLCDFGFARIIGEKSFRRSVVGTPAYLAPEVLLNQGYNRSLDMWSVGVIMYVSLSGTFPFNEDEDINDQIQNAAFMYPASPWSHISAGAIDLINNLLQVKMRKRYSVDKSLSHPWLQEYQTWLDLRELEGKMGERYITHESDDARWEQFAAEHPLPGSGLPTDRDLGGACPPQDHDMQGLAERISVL

[12] = target: SRSF protein kinase 3 (Homo sapiens) (UniProt Q9UPE1); assay: Inhibition of human recombinant MSSK1 at 500 nM in presence of ATP by radiometric assay relative to control
Chain of SRSF protein kinase 3 (Homo sapiens) (Q9UPE1 whole entry): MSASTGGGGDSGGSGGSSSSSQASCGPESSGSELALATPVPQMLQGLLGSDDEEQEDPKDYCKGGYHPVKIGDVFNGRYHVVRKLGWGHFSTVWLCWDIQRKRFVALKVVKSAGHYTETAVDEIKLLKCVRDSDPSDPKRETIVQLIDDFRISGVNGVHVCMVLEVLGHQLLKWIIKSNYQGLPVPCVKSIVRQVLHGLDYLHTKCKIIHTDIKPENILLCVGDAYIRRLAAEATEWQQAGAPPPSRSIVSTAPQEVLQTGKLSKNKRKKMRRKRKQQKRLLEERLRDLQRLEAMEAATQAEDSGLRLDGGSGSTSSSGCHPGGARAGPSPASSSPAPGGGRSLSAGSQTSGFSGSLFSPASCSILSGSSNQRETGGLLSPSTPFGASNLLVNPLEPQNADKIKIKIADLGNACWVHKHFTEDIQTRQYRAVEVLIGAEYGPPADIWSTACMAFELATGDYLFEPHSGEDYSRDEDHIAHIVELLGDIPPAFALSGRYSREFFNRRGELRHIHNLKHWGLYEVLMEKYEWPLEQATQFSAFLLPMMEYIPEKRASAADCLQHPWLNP

[13] = target: Protein kinase C gamma type (Homo sapiens) (UniProt P05129); assay: Inhibition of human recombinant PKCg at 500 nM in presence of ATP by radiometric assay relative to control
[14] = target: Dual specificity tyrosine-phosphorylation-regulated kinase 1A (Homo sapiens) (UniProt Q13627); assay: Inhibition of human recombinant DYRK1A at 500 nM related to control ULK1
[15] = target: Serine/threonine-protein kinase/endoribonuclease IRE1 (Homo sapiens) (UniProt O75460); assay: Inhibition of human recombinant IRE1 at 500 nM related to control ULK1
Chain of Serine/threonine-protein kinase/endoribonuclease IRE1 (Homo sapiens) (O75460 19-977 limits assumed): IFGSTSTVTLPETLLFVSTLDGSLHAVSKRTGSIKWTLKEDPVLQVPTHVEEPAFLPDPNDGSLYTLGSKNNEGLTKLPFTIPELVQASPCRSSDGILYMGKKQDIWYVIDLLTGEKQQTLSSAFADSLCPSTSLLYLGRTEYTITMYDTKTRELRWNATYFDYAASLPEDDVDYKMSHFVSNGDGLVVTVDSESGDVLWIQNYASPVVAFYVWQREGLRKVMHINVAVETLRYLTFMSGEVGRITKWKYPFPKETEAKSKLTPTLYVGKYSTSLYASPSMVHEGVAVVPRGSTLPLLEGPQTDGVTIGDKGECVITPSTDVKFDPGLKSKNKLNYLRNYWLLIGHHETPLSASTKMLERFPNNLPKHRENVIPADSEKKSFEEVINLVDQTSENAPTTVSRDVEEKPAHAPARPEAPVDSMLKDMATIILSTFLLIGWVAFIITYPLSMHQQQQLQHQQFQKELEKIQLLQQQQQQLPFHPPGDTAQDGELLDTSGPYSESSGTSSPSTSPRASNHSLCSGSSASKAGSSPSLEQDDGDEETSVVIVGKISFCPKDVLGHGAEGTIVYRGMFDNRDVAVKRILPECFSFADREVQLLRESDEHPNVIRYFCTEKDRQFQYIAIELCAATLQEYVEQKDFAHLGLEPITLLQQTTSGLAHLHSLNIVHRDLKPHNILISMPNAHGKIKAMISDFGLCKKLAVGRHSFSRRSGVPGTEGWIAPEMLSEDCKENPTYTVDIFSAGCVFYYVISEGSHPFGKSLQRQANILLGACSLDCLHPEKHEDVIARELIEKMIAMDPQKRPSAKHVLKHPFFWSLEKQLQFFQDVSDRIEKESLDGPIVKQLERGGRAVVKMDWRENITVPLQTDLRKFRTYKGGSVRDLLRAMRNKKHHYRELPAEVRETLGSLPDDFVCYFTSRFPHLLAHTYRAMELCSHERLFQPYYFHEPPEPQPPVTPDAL

Chain of Mitogen-activated protein kinase 1 (Homo sapiens) (P28482 whole entry): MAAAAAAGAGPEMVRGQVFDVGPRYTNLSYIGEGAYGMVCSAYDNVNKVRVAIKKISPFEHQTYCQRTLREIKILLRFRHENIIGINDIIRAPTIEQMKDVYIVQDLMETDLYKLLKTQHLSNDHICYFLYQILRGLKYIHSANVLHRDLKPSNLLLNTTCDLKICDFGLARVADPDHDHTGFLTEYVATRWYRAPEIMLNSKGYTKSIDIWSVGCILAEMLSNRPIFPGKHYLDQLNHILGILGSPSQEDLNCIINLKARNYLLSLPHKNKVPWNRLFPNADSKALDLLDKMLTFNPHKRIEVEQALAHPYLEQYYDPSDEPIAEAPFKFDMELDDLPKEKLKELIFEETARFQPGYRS

SMILES: O=C(N[C@@H](C1CC1)C(F)(F)F)c1cc(-c2cnn3cc(-c4ccc(F)cc4)cnc23)cs1
- fold change (FC) [1]: 0
- fold change (FC) [2]: 0
- fold change (FC) [3]: 0.26

SMILES: CC(C)[C@H](NC(=O)c1cc(-c2cnn3cc(-c4ccc(OCCN5CCCCC5)cc4)cnc23)cs1)C(F)(F)F
- inhibition [4]: 0%
- inhibition [5]: 9%
- inhibition [6]: 0%
- fold change (FC) [7]: 0.09
- fold change (FC) [8]: 0
- fold change (FC) [9]: 0.01
- fold change (FC) [10]: 0
- inhibition [11]: 0%

SMILES: CNC(=O)c1ccccc1Oc1nc(Nc2cc(OC)c(OC)c(OC)c2)ncc1Br
- inhibition [12]: 15%
- inhibition [13]: 9%
- fold change (FC) [14]: 0.01
- fold change (FC) [15]: 0

— ChEMBL document CHEMBL5653631, “A Potent and Selective ULK1 Inhibitor Suppresses Autophagy and Sensitizes Cancer Cells to Nutrient Stress” (iScience, 2018)
